# Experimental data as given in PMC5773577, “Novel Miniature Membrane Active Lipopeptidomimetics against Planktonic and Biofilm Embedded Methicillin-Resistant Staphylococcus aureus” (Scientific Reports, 2018).
# Assays:
# E. faecalis (ATCC 29212) = test: microbe, parasite or virus in culture; assay type: cell-based; settings: Enterococcus faecalis, ATCC29212, MHB, 2–5 × 10^5 CFU/mL, 16–18 h, 37 °C, read-out: Minimum inhibitory concentration, MIC
# Protocol: (§1) The antibacterial activity was evaluated as MIC using slight modifications to a serial broth micro dilution method as reported previously[66],[67]. Briefly, to each treatment well of the 96-well plate (Corning Incorporated, USA) 10 μL of peptidomimetic/antibiotic was added and subsequently diluted serial 2-fold in 0.2% BSA (in 0.01% acetic acid). Then to each well of the first 11 columns 100 μL of mid-log phase bacterial suspension in MHB medium was added to get 2–5 × 10^5 CFU/mL. Cultures without test peptidomimetics/antibiotics were used as growth control. Uninoculated MHB medium was used as negative control. The microtitre plates were incubated overnight with agitation (180 rpm) at 37 °C. After 16–18 h incubation, absorbance was read at 600 nm using an ELISA plate reader (Molecular Devices, Sunnyvale, CA, USA). The experiments were carried out in duplicate on at least three different days.
# [1] = system: Vancomycin-resistant E. faecium (ATCC 700221); test: microbe, parasite or virus in culture; assay type: cell-based; settings: Enterococcus faecium, ATCC700221, MHB, 2–5 × 10^5 CFU/mL, 16–18 h, 37 °C, read-out: Minimum inhibitory concentration, MIC
# Protocol: as §1
# MRSA ATCC 33591 [2] = test: Membrane depolarization assay, DiSC3(5); assay type: cell-based, Staphylococcus aureus; settings: for % depolarization relative to melittin control (10 μM, set as 100%): 2 min, DiSC3(5), HEPES-glucose buffer pH 7.2, 37 °C, mean ± S.D., two days
# Protocol: The cytoplasmic membrane depolarization in MRSA ATCC 33591 strain was measured using membrane potential sensitive dye 3,3′-dipropylthiacarbocyanine iodide (DiSC3(5)) with a protocol described previously with slight modifications[23],[48]. Briefly, exponential phase cells grown in MHB were harvested by centrifugation, washed and re-suspended in respiration buffer (5 mM HEPES, 20 mM glucose, pH 7.2) to 2.5 × 10^6 CFU/mL. The cells were divided into 1 mL aliquots and incubated with 3.6 μM of DiSC3(5) (in dark) for 30 min to get steady baseline fluorescence intensity. The dye-loaded cells (800 μL) were then treated with peptidomimetics at respective 1× and 4× MIC concentrations (2–20 μL) and consequent fluorescence increase after 2 min of addition was measured in a Shimadzu RF-5301 PC spectrofluorimeter. As controls IL, melittin and VAN were also assayed under identical conditions. The samples were excited at 622 nm and emission was recorded between 650–700 nm with 3 nm slit width for both excitation and emission. The temperature was maintained at 37 °C throughout the experiment. Depolarization kinetics was measured at 4 × MIC of test agents for 5 min. The experiment was repeated on two different days and for Fig. 3 panel (A) mean ± S.D. data for % depolarization relative to melittin control (10 μM) set as 100% is presented here. For panel (B) representative data is shown here. The viability of dye-loaded cells corresponding to depolarization experiment at 4 × MIC concentration was also measured by plating the diluted aliquots onto BHI agar plates.
# MRSA ATCC 33591 [3] = test: Membrane permeabilization assay, calcein-AM dye release, flow cytometry; assay type: cell-based, Staphylococcus aureus; settings: PBS, 37 °C, mean ± S.D., two days
# Protocol: To assess the effect of designed peptidomimetics on membrane integrity of MRSA ATCC 33591 strain a calcein-AM dye release experiment was performed using the protocol described previously with slight modifications. Briefly, exponential phase MRSA ATCC 33591 culture was prepared in MHB medium as mentioned earlier and adjusted to OD600 = 1 (~10^9 CFU/mL) in PBS (10 mM sodium phosphate, 150 mM NaCl, pH 7.4). Thereafter, the cells were incubated at 37 °C with calcein-AM (2 μg/mL) in 10% MHB medium for 2 h. The calcein-loaded cells were washed once and re-suspended in PBS to OD600 = 0.5 (~10^8 CFU/mL). […] Subsequently, calcein fluorescence was measured via flow cytometry (Becton Dickinson (BD) FACS verse, San Jose, CA) with excitation and emission wavelengths of 488 nm and 530 ± 30 nm, respectively. For each sample, 10,000 cells were acquired. As a positive control, melittin (10 μM) was assayed under identical conditions. The experiment was repeated on two different days and mean ± S.D. is presented here. Corresponding to leakage a viability assay at 4 × MIC of respective test agents was also performed by incubating samples for 2 h at 37 °C and plating the diluted aliquots on BHI agar plates.
# [4] = system: 48 h mature MRSA ATCC 33591 biofilms; test: Cell viability of 48 h mature biofilm embedded cells; assay type: cell-based, Staphylococcus aureus; settings: 24 h treatment at 20 × MIC, mean ± S.D., two experiments, untreated 9.31 ± 0.11
# Protocol: For enumeration of cells after 48 h incubation, the medium was aspirated and the biofilms were washed with PBS once. Then 200 μL PBS was added to each well of the chamber slide and the chambers were thoroughly scraped with a pipette tip. The bacterial suspension obtained was plated on BHI agar after dilution in PBS as described above. The resulting CFU/mL from two different days were counted and plotted as mean ± S.D.
structure (smiles),measurement,setting,value
"CN[C@H](CC(C)C)C(=O)N[C@H]1C(=O)N[C@@H](CC(N)=O)C(=O)N[C@H]2C(=O)N[C@H]3C(=O)N[C@H](C(=O)N[C@H](C(=O)O)c4cc(O)cc(O)c4-c4cc3ccc4O)[C@H](O)c3ccc(c(Cl)c3)Oc3cc2cc(c3O[C@@H]2O[C@H](CO)[C@@H](O)[C@H](O)[C@H]2O[C@H]2C[C@](C)(N)[C@H](O)[C@H](C)O2)Oc2ccc(cc2Cl)[C@H]1O [VAN, vancomycin]",MIC,E. faecalis (ATCC 29212),1.4 µg/mL
same,MIC,[1],> 45.4 µg/mL
same,Depolarization kinetics: time to increase in relative fluorescence intensity (RFI),"MRSA ATCC 33591 [2]; 4 × MIC, monitored for 5 min",RFI values similar to untreated control cells
same,"% depolarization relative to melittin control (10 μM, set as 100%)",MRSA ATCC 33591 [2]; at 4 × MIC,4.7 ± 4.1%
same,"% depolarization relative to melittin control (10 μM, set as 100%)",MRSA ATCC 33591 [2]; at MIC,2.9 ± 4.8%
same,% calcein leakage,"MRSA ATCC 33591 [3]; at 4 × MIC, 2 min incubation",did not cause any leakage
same,% calcein leakage,"MRSA ATCC 33591 [3]; at 4 × MIC, 2 h incubation",11.9 ± 9.2%
same,% calcein leakage,"MRSA ATCC 33591 [3]; at MIC, 2 min incubation",1.6 ± 2.3%
same,number of surviving cells,[4],9.08 ± 0.11 log CFU/mL
